Where two headings read alike, the source gives them in different places.

In general, EC50 refers to the concentration giving half of the maximal effect. Low values mean higher potency in that assay, high ones lower potency in that assay.

The target of the test is T1, α-7 nicotinic acetylcholine receptor channel expressed in HEK 293 cells (Rattus norvegicus, UniProt Q05941).
T1 construct: expressed in transfected cells
Description: Ca2+-sensitive fluorescence-based FLIPR assay, α7 nicotinic ACh receptor channel function (agonist). In kind it is cell-based. As for the experimental part: I) α7 Nicotinic Acetycholine Receptor Binding. Membranes were prepared for binding using HEK293 cells stably expressing the rat α7 nicotinic acetycholine receptor (rat α7 nAChR). Cells were homogenized at 4° C. in hypotonic lysis buffer consisting of 10 mM Tris (pH 7.4), 5 mM EDTA and protease inhibitors and centrifuged at 32000×g for 20 minutes. The pellet was washed once in membrane wash buffer consisting of 50 mM Tris (pH 7.4), 1 mM EDTA and protease inhibitors and centrifuged at 32000×g for 20 minutes. This pellet was then resuspended in assay buffer consisting 50 mM KH2PO4 (pH 7.4 at 25° C.), 1 mM EDTA, 0.005% Triton-X 100 and 0.1% (v/v) Sigma Protease Inhibitor Cocktail. Aliquots were then frozen in dry ice/ethanol and kept at −80° C. until the day of the assay. II) A Ca^2+-Sensitive, Fluorescence-Based Assay α-7 for Nicotinic Acetylcholine Receptor Channel Function In Mammalian Cells (“FLIPR”). Summary: Lead compounds are evaluated for agonist activity at […], α3β4, […], and α1β1δ1ε sub-types of nicotinic ACh receptor ion channels expressed in mammalian HEK 293 cells. Agonist potency and efficacy values are determined from kinetic fluorescence Ca^2+ influx measurements made using a 384 well FLIPR (Fluorescence Image Plate Reader). […] In this assay, channel expressing HEK cell lines seeded in 384 well assay plates are loaded with a membrane permeant fluorescent Ca^2+ indicator dye, whose 510 nm green emission signal increases in response to elevation of intracellular Ca^2+ concentration. The basal fluorescence from the cells is monitored in real time, followed by the acute addition of test compounds.
Materials and Methods: Reagents: The acetomethoxy (AM) ester of the Ca^2+ indicator dye Fluo-4 was obtained from InVitrogen, (Carlsbad, Calif.). Acetylcholine and all buffer constituents were purchased from Sigma Chemical Company, St. Louis, Mo. G418 and Minimal Essential Medium were purchased from InVitrogen Life Technologies, Carlsbad, Calif. Fetal bovine serum was purchased from (InVitrogen, Carlsbad, Calif.).
Cell Culture: HEK-293 cells were grown in Minimal Essential Medium containing 10% (v/v) fetal bovine serum at 37° C. in a 5% CO2 incubator. HEK-293 cells stably expressing the ion channels were grown in the same medium with the addition of 500 μg/ml G418.
Ca^2+ flux assays of Ca^2+ channels expressed in HEK-293 cells: HEK-293 cells expressing the ion channels of interest were plated in 384 well, black-walled, clear-bottomed, poly-D-lysine coated plates at a density of ˜20,000 cells/well in 20 μl of Minimal Essential Medium containing 10% (v/v) fetal bovine serum and incubated for 2 days at 29° C. in a 5% CO2 incubator. Prior to assay, cells were loaded with the Fluo-4 AM ester. […] Dye loading was allowed to proceed for 90 minutes at room temperature at which time the dye loading solution was removed and replaced with 40 μl/well of Hanks buffer. Cells loaded with dye were loaded onto a FLIPR384 (Molecular Devices, Sunnyvale, Calif.). Fluo-4 dye was excited using the 488 nm line of an argon laser. Emission was filtered using a 540+/−30 nm bandpass filter. For evaluation of the effects of test compounds using the Ca^2+ flux assay, compounds to be tested were provided in assay ready plates. For nicotinic receptor ion channel expressing cells, the assay was initiated by the addition of 20 μl/well of Hanks buffer containing test compounds. For all assays, data were collected at 1 Hz for 10 seconds (baseline), at which time the compound containing stimulus buffers are added, and further measurements collected at 0.33 Hz for 3 min.
Data Analysis: The statistical robustness of the nicotinic receptor Ca^2+ flux assays is determined from blanks and totals wells. […] The raw fluorescence units data files generated on the FLIPR plate reader are automatically exported and processed by in-house data analysis tools.

Setting [1] is: FLIPR α7 activity rating (EC50, nM), Table 1, HEK 293 cells, agonist Ca2+ flux.
The mark [2] stands for this setting: FLIPR α7 (EC50, nM), Table 1, HEK 293 cells, agonist Ca2+ flux.

T1 sequence (Q05941 23-502): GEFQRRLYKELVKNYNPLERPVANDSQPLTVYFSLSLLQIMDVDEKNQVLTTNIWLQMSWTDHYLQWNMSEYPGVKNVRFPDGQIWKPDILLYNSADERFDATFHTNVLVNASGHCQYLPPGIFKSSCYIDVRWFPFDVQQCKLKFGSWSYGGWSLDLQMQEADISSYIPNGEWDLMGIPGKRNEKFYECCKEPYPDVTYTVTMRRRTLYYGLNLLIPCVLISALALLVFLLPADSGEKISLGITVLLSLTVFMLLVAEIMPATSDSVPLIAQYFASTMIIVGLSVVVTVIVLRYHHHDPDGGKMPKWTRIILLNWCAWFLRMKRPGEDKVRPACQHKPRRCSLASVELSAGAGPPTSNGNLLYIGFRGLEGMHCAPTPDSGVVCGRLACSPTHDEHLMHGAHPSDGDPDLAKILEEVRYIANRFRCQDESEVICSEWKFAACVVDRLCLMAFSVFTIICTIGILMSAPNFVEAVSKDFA

Under setting [1], `COc1ccc2nc(NC3=NC[C@@]4(CN5CCC4CC5)O3)cnc2c1` [Example 38, (R)—N-(6-Methoxyquinoxalin-2-yl)-4H-1′-azaspiro[oxazole-5,3′-bicyclo[2.2.2]octan]-2-amine] had an EC50 of less than 100 nM. The same measure, in the same setting: in the case of `FC(F)Oc1cnc(NC2=NC[C@@]3(CN4CCC3CC4)O2)nc1` [Example 39, (R)—N-(5-(Difluoromethoxy)pyrimidin-2-yl)-4H-1′-azaspiro[oxazole-5,3′-bicyclo[2.2.2]octan]-2-amine] it was less than 100 nM. Still for that read-out and setting: for `Cc1cnc(NC2=NC[C@@]3(CN4CCC3CC4)O2)nc1C` [Example 40, (R)—N-(4,5-Dimethylpyrimidin-2-yl)-4H-1′-azaspiro[oxazole-5,3′-bicyclo[2.2.2]octan]-2-amine] the value was less than 100 nM; for `COc1ccc(-c2cc(NC3=NC[C@@]4(CN5CCC4CC5)O3)ncn2)cc1` [Example 42, (R)—N-(6-(4-Methoxyphenyl)pyrimidin-4-yl)-4H-1′-azaspiro[oxazole-5,3′-bicyclo[2.2.2]octan]-2-amine], less than 100 nM; for `COc1ccc(-c2cc(NC3=NC[C@@]4(CN5CCC4CC5)O3)ncn2)cn1` [Example 43, (R)—N-(6-(6-Methoxypyridin-3-yl)pyrimidin-4-yl)-4H-1′-azaspiro[oxazole-5,3′-bicyclo[2.2.2]octan]-2-amine], less than 100 nM. On the same count and under the same terms, for `c1ccc2cc(-c3cc(NC4=NC[C@@]5(CN6CCC5CC6)O4)ncn3)ccc2c1` [Example 44, (R)—N-(6-(Naphthalen-2-yl)pyrimidin-4-yl)-4H-1′-azaspiro[oxazole-5,3′-bicyclo[2.2.2]octan]-2-amine] the value was 100 to 1000 nM.

`c1ccc(-c2csc(NC3=NCC4(CN5CCC4CC5)O3)n2)cc1` (centres unmarked) [Example 45] registered an EC50 under setting [1] of 100 to 1000 nM. Regarding `c1cc2nc(NC3=NCC4(CN5CCC4CC5)O3)sc2cc1N1CCOCC1` (centres unmarked) [Example 46], the response was half-maximal at 2000 nM (EC50). The EC50 under setting [1] lay within 1000 to 100000 nM. `Fc1ccc2sc(NC3=NCC4(CN5CCC4CC5)O3)nc2c1` (centres unmarked) [Example 47]: under setting [1], the EC50 is less than 100 nM.

`FC(F)(F)c1ccc2nc(NC3=NCC4(CN5CCC4CC5)O3)sc2c1` (centres unmarked) [Example 48]: the EC50 is, setting by setting: under setting [2], 790 nM; under setting [1], 100 to 1000 nM. `FC(F)(F)Oc1ccc2nc(NC3=NCC4(CN5CCC4CC5)O3)sc2c1` (centres unmarked) [Example 49] gave an EC50 of 3330 nM. Under setting [1], this molecule gave an EC50 of 1000 to 100000 nM. Consider `Fc1cccc2sc(NC3=NCC4(CN5CCC4CC5)O3)nc12` (centres unmarked) [Example 50], for which the EC50 under setting [1] is less than 100 nM.

Consider `Fc1cc2nc(NC3=NCC4(CN5CCC4CC5)O3)sc2cc1F` (centres unmarked) [Example 52], for which the EC50 was 325 nM under setting [2] and 100 to 1000 nM under setting [1]. Under setting [1], `COc1ccc2sc(NC3=NCC4(CN5CCC4CC5)O3)nc2c1` (centres unmarked) [Example 53] displayed an EC50 of 1000 to 100000 nM.

As to `COc1cccc2sc(NC3=NCC4(CN5CCC4CC5)O3)nc12` (centres unmarked) [Example 54], the EC50 under setting [1] was in the range of 1000 to 100000 nM.

As to `COc1cc2nc(NC3=NCC4(CN5CCC4CC5)O3)sc2cc1OC` (centres unmarked) [Example 55], under setting [1], the EC50 was 1000 to 100000 nM.

`c1ccc(-c2nnc(NC3=NCC4(CN5CCC4CC5)O3)s2)cc1` (centres unmarked) [Example 56]: under setting [1], the EC50 was 1000 to 100000 nM.

`CN(C)C(=O)c1ccc2nc(NC3=NCC4(CN5CCC4CC5)O3)sc2c1` (centres unmarked) [Example 57]: the EC50 was found to be 3900 nM. Besides, the EC50 under setting [1] lay within 1000 to 100000 nM. Consider `O=C(c1ccc2nc(NC3=NCC4(CN5CCC4CC5)O3)sc2c1)N1CCCCC1` (centres unmarked) [Example 58], for which the concentration giving a half-maximal response (EC50) under setting [1] was 1000 to 100000 nM. In turn, `Fc1ccc(-c2nnc(NC3=NCC4(CN5CCC4CC5)O3)s2)cc1` (centres unmarked) [Example 59] had an EC50 of 4240 nM. For the same molecule, under setting [1], the EC50 lay within 1000 to 100000 nM. The matching figures for `c1coc(-c2nnc(NC3=NCC4(CN5CCC4CC5)O3)s2)c1` (centres unmarked) [Example 60]: 2550 nM and 1000 to 100000 nM. Regarding `Brc1ccc2nc(NC3=NCC4(CN5CCC4CC5)O3)sc2c1` (centres unmarked) [Example 61], under setting [1], the EC50 lay in the range of 100 to 1000 nM.

In the case of `Cc1nc2cc(NC3=NCC4(CN5CCC4CC5)O3)ccc2s1` (centres unmarked) [Example 63], the EC50 was determined as 2600 nM. Also, under setting [1], the EC50 was in the range of 1000 to 100000 nM. In the case of `Clc1ccc2nc(NC3=NCC4(CN5CCC4CC5)O3)nn2c1` (centres unmarked) [Example 66], the EC50 reads like this: under setting [2], 360 nM; under setting [1], 100 to 1000 nM.

On to `Cc1noc(C)c1NC1=NCC2(CN3CCC2CC3)O1` (centres unmarked) [Example 67], for which the EC50 under setting [1] is 1000 to 100000 nM.

Under setting [1], `Cc1cnn(C)c1NC1=NCC2(CN3CCC2CC3)O1` (centres unmarked) [Example 68] had an EC50 of 1000 to 100000 nM. Turning to `N#Cc1ccc2nc(NC3=NCC4(CN5CCC4CC5)O3)sc2c1` (centres unmarked) [Example 70], under setting [1], the EC50 is 100 to 1000 nM.

The molecule `c1nc2cc(NC3=NCC4(CN5CCC4CC5)O3)ccc2s1` (centres unmarked) [Example 71] yielded an EC50 under setting [1] of 1000 to 100000 nM. The same measure, in the same setting: in the case of `c1nc2ccc(NC3=NCC4(CN5CCC4CC5)O3)cc2s1` (centres unmarked) [Example 72] it was 1000 to 100000 nM.

Consider `c1ccc2ncc(NC3=NCC4(CN5CCC4CC5)O3)cc2c1` (centres unmarked) [Example 73], for which the EC50 came out at 7550 nM. The EC50 under setting [1] was in the range of 1000 to 100000 nM. `Cc1ccc2nc(NC3=NCC4(CN5CCC4CC5)O3)nn2c1` (centres unmarked) [Example 74]: under setting [1], the EC50 is less than 100 nM.

Molecule `c1cnc2cc(NC3=NCC4(CN5CCC4CC5)O3)ccc2n1` (centres unmarked) [Example 75] registered an EC50 under setting [1] of 1000 to 100000 nM. Under setting [1], `COc1ccc2nc(NC3=NCC4(CN5CCC4CC5)O3)[nH]c2c1` (centres unmarked) [Example 76] gave an EC50 of 100 to 1000 nM.

As to `Fc1ccc2nc(NC3=NCC4(CN5CCC4CC5)O3)[nH]c2c1` (centres unmarked) [Example 77], the EC50 is 355 nM under setting [2] and 100 to 1000 nM under setting [1]. For `c1cc2cn[nH]c2cc1NC1=NCC2(CN3CCC2CC3)O1` (centres unmarked) [Example 78], the EC50 under setting [1] was in the range of 1000 to 100000 nM. For `FC(F)(F)c1ccc2nc(NC3=NCC4(CN5CCC4CC5)O3)nn2c1` (centres unmarked) [Example 83], the EC50 by setting is: under setting [2], 240 nM; under setting [1], 100 to 1000 nM. `c1cnc2ccc(NC3=NCC4(CN5CCC4CC5)O3)cc2c1` (centres unmarked) [Example 85] returned an EC50 under setting [1] of 1000 to 100000 nM. `O=C1Cc2cc(NC3=NCC4(CN5CCC4CC5)O3)ccc2N1` (centres unmarked) [Example 86] came in with an EC50 under setting [1] of 1000 to 100000 nM.

With `c1ccn2nc(NC3=NCC4(CN5CCC4CC5)O3)nc2c1` (centres unmarked) [Example 87], under setting [1], the EC50 was less than 100 nM. On the same count and under the same terms, in the case of `c1ccc(-c2csc(NC3=NCC4(CN5CCC4CC5)O3)n2)nc1` (centres unmarked) [Example 88] it was 100 to 1000 nM; in that of `Cc1cc(C)c2nc(NC3=NCC4(CN5CCC4CC5)O3)sc2c1` (centres unmarked) [Example 89], less than 100 nM. For the molecule `CC(=O)Nc1ccc2nc(NC3=NCC4(CN5CCC4CC5)O3)sc2c1` (centres unmarked) [Example 90], the EC50 was 130 nM under setting [2] and 100 to 1000 nM under setting [1].

Under setting [1], `CCc1ccc2nc(NC3=NCC4(CN5CCC4CC5)O3)sc2c1` (centres unmarked) [Example 91] showed a concentration giving a half-maximal response (EC50) of 100 to 1000 nM. On the same count and under the same terms, for `Cc1cnc(NC2=NCC3(CN4CCC3CC4)O2)s1` (centres unmarked) [Example 92] the value was less than 100 nM; for `Cc1ccn2nc(NC3=NCC4(CN5CCC4CC5)O3)nc2c1` (centres unmarked) [Example 94], less than 100 nM; for `Cn1c(-c2ccccc2)cnc1NC1=NCC2(CN3CCC2CC3)O1` (centres unmarked) [Example 96], 1000 to 100000 nM. Same read-out and setting: in the case of `Cc1cccn2nc(NC3=NCC4(CN5CCC4CC5)O3)nc12` (centres unmarked) [Example 97] it was 100 to 1000 nM; in that of `Cc1nc(NC2=NCC3(CN4CCC3CC4)O2)sc1C(=O)N(C)C` (centres unmarked) [Example 98], 1000 to 100000 nM.

For the molecule `Cc1ccc(C)c2sc(NC3=NCC4(CN5CCC4CC5)O3)nc12` (centres unmarked) [Example 102], the concentration for a half-maximal effect (EC50) under setting [1] is less than 100 nM. In the case of `Cc1cc(Cl)c2nc(NC3=NCC4(CN5CCC4CC5)O3)sc2c1` (centres unmarked) [Example 103], the EC50 runs as follows: under setting [2], 280 nM; under setting [1], 100 to 1000 nM. Under setting [1], `FC(F)Oc1ccc2nc(NC3=NCC4(CN5CCC4CC5)O3)sc2c1` (centres unmarked) [Example 104] showed an EC50 of 100 to 1000 nM.

(Values after patent publication US8309577B2, “Quinuclidine compounds as α-7 nicotinic acetylcholine receptor ligands” (Bristol-Myers Squibb Company, priority 2008, dated 2012).)
